Key:
PRKD1 (PKC mu) = molecular target: T1, PRKD1 (PKC mu) (Homo sapiens, UniProt Q15139); assay: Kinase profiling, Invitrogen Z'-LYTE; assay type: biochemical; conditions: Table 2
T1 construct: purchased Invitrogen
T1 sequence (Q15139 1-912): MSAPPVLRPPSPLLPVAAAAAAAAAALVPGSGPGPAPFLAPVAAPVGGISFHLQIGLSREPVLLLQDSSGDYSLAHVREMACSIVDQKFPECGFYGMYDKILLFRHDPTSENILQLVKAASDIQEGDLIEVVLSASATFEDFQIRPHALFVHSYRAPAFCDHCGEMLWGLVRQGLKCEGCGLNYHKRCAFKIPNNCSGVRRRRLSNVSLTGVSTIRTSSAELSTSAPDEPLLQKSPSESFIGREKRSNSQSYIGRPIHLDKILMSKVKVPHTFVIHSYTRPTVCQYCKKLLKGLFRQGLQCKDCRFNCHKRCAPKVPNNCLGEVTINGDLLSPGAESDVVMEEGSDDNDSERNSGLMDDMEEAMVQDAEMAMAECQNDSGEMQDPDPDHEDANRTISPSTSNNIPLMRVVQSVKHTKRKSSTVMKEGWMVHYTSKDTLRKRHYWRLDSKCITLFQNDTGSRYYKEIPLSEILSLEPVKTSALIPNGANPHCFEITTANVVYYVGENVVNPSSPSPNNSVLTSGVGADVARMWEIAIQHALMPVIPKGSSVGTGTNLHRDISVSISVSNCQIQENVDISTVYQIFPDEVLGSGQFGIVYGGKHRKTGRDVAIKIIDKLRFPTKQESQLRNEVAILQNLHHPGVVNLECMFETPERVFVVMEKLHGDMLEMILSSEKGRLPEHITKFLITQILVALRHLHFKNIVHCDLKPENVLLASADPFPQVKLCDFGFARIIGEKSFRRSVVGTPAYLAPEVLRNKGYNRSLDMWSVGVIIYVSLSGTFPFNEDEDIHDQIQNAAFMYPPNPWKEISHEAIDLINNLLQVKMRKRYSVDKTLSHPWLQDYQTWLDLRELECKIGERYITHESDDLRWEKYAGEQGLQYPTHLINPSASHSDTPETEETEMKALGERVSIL
Experimental: (§1) Kinase profiling was conducted using Invitrogen Z'-LYTE screening protocol and assay conditions found at www.invitrogen.com. Compound (2) inhibited PLK1 completely at 5 μM.

IKBKE (IKK epsilon) = molecular target: T2, IKBKE (IKK epsilon) (Homo sapiens, UniProt Q14164); assay: Kinase profiling, Invitrogen Z'-LYTE; assay type: biochemical; conditions: Table 2
T2 construct: purchased Invitrogen
T2 sequence (Q14164 1-716): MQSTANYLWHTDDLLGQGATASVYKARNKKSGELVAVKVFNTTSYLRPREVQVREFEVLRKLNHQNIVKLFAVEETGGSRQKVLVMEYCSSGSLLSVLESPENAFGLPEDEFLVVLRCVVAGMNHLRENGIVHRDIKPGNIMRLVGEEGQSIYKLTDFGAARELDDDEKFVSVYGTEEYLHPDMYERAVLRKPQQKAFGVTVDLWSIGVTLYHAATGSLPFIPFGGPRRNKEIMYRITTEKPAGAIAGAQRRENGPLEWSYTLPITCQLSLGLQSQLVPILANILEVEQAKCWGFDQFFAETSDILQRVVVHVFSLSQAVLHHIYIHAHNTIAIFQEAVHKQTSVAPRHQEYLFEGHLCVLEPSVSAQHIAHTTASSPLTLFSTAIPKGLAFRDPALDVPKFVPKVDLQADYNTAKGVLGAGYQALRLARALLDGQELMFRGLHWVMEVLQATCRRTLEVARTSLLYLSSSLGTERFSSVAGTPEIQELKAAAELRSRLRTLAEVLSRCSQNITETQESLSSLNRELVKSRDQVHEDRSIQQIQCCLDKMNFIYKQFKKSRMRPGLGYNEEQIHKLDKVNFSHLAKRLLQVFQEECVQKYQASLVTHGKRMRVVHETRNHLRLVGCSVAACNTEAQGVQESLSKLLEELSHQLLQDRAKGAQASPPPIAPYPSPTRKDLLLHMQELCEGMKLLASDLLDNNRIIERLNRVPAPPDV
Experimental: as §1

CSK = molecular target: T3, CSK (Homo sapiens, UniProt P41240); assay: Kinase profiling, Invitrogen Z'-LYTE; assay type: biochemical; conditions: Table 2
T3 construct: purchased Invitrogen
T3 sequence (P41240 whole entry): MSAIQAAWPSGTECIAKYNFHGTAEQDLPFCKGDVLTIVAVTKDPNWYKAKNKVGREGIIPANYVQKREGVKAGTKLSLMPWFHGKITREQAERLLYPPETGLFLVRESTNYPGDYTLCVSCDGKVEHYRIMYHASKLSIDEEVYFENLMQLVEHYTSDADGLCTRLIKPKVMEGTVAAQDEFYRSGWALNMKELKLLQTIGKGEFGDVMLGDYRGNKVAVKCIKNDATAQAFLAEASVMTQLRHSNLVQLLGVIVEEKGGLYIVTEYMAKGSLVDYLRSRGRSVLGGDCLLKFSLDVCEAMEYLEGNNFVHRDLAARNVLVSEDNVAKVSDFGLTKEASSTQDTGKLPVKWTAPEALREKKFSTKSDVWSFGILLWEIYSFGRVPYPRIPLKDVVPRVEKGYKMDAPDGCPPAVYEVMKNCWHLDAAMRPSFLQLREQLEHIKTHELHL
Experimental: as §1

FER = molecular target: T4, FER (Homo sapiens, UniProt P16591); assay: Kinase profiling, Invitrogen Z'-LYTE; assay type: biochemical; conditions: Table 2
T4 construct: purchased Invitrogen
T4 sequence (P16591 whole entry): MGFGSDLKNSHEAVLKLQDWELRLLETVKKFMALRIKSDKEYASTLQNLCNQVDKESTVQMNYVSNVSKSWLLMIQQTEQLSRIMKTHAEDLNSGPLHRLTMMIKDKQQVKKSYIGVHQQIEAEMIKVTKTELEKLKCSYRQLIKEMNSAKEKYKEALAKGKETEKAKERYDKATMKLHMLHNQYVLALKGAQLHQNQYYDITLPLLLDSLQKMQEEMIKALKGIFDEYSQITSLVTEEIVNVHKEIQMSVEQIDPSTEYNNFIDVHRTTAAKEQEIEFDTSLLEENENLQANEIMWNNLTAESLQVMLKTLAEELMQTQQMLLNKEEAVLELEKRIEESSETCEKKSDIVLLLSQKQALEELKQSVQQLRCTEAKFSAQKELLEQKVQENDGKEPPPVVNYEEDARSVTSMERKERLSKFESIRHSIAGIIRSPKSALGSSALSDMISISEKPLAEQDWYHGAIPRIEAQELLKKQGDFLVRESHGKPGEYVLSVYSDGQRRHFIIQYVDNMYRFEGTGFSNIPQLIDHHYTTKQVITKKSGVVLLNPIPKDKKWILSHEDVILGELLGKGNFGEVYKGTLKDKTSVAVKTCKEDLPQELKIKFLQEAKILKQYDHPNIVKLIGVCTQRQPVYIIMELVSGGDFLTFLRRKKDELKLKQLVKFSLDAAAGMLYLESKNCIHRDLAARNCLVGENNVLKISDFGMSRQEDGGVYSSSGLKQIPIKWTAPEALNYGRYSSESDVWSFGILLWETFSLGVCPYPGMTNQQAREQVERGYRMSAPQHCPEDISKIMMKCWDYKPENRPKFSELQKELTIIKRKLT
Experimental: as §1

MCF-10A ErbB2 cells = assay: Western blot of BZX-treated human breast cancer cells (O-GlcNAcylation); assay type: cell-based; conditions: 200 μM
Experimental: Western Blot of BZX-Treated Human Breast Cancer Cells MCF-10A ErbB2 cells were obtained from Joan Brugge's lab at Harvard Medical School (Boston, Mass.). Cells were maintained in DMEM/F12 (Invitrogen) supplemented with 5% horse serum (Invitrogen), 20 ng/ml EGF (Peprotech), 10 μg/ml insulin (Sigma), 100 ng/ml cholera toxin (Sigma), […] hydrocortisone (Sigma), 50 U/ml penicillin and 50 μg/ml streptomycin (Invitrogen). When cells were grown to 70% confluence, old growth medium was removed. Cells were rinsed twice with PBS, and were grown in glucose starvation medium (DMEM-no glucose; Invitrogen) supplemented with 1% horse serum, 50 U/ml penicillin and 50 μg/ml streptomycin) in the absence (control) and presence of (2) (200 μM) for 4 h. PUGNAc (100 μM, Sigma) and glucosamine (2 mM, EMD) were added to the cells and incubated for another 3 h. Cell lysates from 2−5×10^6 cells were prepared in M-PER mammalian protein extraction reagent (Pierce) supplemented with protease inhibitor cocktail (Sigma). Lysates were cleared by centrifugation at 16,000 g for 10 min at 4° C. and analyzed by SDS-PAGE. Proteins were transferred to a nitrocellulose membrane (Bio-Rad Laboratories) and O-GlcNAcylation was detected with anti-O-GlcNAc antibody (CTD 110.6, Sigma, used at 1:5,000) and a secondary anti-mouse IgM-HRP antibody (Pierce, used at 1:20,000). Western Blot of BZX Inhibitor Treated Cell Lysates

COc1ccc(OC(=O)n2c(=O)oc3cc(C(C)=O)ccc32)cc1 [Compound 2]
% Inhibition Point 1 (PRKD1 (PKC mu)): −137%
% Inhibition Point 2 (PRKD1 (PKC mu)): −151%
% Inhibition mean (PRKD1 (PKC mu)): −144%
% Inhibition Point 1 (IKBKE (IKK epsilon)): 3%
% Inhibition Point 2 (IKBKE (IKK epsilon)): 4%
% Inhibition mean (IKBKE (IKK epsilon)): 3%
% Inhibition Point 1 (CSK): −42%
% Inhibition Point 2 (CSK): −60%
% Inhibition mean (CSK): −51%
% Inhibition Point 1 (FER): −261%
% Inhibition Point 2 (FER): −240%
% Inhibition mean (FER): −251%
inhibition of O-GlcNAcylation in cells (MCF-10A ErbB2 cells): inhibits global O-GlcNAcylation in cells

— US9573911B2, “Diphosphate mimetics and uses thereof” (President and Fellows of Harvard College, priority 2011, dated 2017)
